“And” between values parts separate entries of the source, which are not always exact repeats. Identical values can stand only once. Counter-ions that a name gives are not always drawn.
Experiments:
[1] = molecular target: T1, human placental aldose reductase (Homo sapiens, UniProt P15121); experiment: Inhibition of human placental aldose reductase; format: biochemical; details: for IC50: human placenta enzyme; for IC100: human placenta, read-out: concentration inhibiting the activity by 100%
T1 construct: An enzyme solution was prepared from human placenta; from tissue; host or cells: human placenta
Protocol: (§1) Specifically reaction was started by adding dl-glyceraldehyde as a substrate to a reaction solution containing rat lens homogenate, Li2 SO4, NADPH2 and inhibitor, and the enzyme activity was measured by the decrease of the optical absorption of NADPH2 (optical density: OD) at 340 nm for 5 min. The solution with no addition of the substrate was used for the blank OD. The inhibiting ratio for the aldose reductase reaction by the inhibitor was determined by the following equation: [formula]
The determination of enzyme activity was same as in Test Example 1 except enzyme source was human placenta.
(§2) To a reaction solution containing the chick lens homogenate, Li2 SO4, NADPH2 and an inhibitor, was added dlglyceraldehyde as substrate to start the reaction, and the enzymatic activity was determined by measuring the decrease in optical density (OD) of NADPH2 at 340 nm after five minutes. A solution with no substrate added was used for the blank test. The inhibition rate against the aldose reductase reaction was calculated from the following equation: [formula]
An enzyme solution was prepared from human placenta, and the inhibitory action of PQQ·2K against human placental aldose reductase was measured in the same way as in Test Example 4.
An enzyme solution was prepared from human placenta, and the inhibitory action of PQQ·3Me against human placental aldose reductase was measured in the same way as in Test Example 4.
An enzyme solution was prepared from human placenta, and the inhibitory action of PQQ·2Me.Et against human placental aldose reductase was measured in the same way as in Test Example 4.

[2] = molecular target: T2, rat lens aldose reductase (Rattus norvegicus, UniProt P07943); experiment: Inhibition of rat lens aldose reductase (NADPH2 OD decrease at 340 nm); format: biochemical; details: for IC50: rat lens homogenate, substrate dl-glyceraldehyde
T2 construct: A homogenate of rat lens was used; from tissue; host or cells: rat lens (crude homogenate; in later tests the 3,000 rpm supernatant)
Protocol: A homogenate of rat lens was used and the activity of aldose reductase was measured by the method of Kinoshita, et. al. (Kinoshita J. H., et al, Metabolism, 28, 462-469, (1979)).
as §1, §2
A homogenate of rat lens was centrifuged for four minutes at 3,000 rpm under cooling, the supernatant was collected as an enzyme solution, and the inhibitory action of PQQ·H2 against aldose reductase was measured in the same way as in Test Example 4.
An enzyme solution was prepared from rat lens in the same manner as in Test Example 10, and the inhibitory action of PQQ·3Me against rat lens aldose reductase was measured in the same way as in Test Example 4.

[3] = system: chick lens aldose reductase; experiment: Inhibition of chick lens aldose reductase; format: biochemical; details: for concentration inhibiting the activity by 100%: chick lens; for IC50: chick lens homogenate, read-out: concentration inhibiting the aldose reductase activity by 50%
Protocol: The activity of aldose reductase was measured according to the method of Kinoshita et al. [Metabolism, 28, 462-469 (1979)] using a homogenate of chick lens.
as §2
An enzyme solution was prepared from chick lens in the same manner as in Test Example 4, and the inhibitory action of PQQ·H2 against aldose reductase was measured in the same way as in Test Example 4.
An enzyme solution was prepared from chick lens in the same manner as in Test Example 4, and the inhibitory action of PQQ·3Me against aldose reductase was measured in the same way as in Test Example 4.

[4] = molecular target: T3, bovine lens aldose reductase (Bos taurus, UniProt P16116); experiment: Inhibition of bovine lens aldose reductase; format: biochemical; details: for IC50: bovine lens enzyme; for IC100: bovine lens, read-out: concentration inhibiting the activity by 100%; for inhibition at 10 µM: inhibitor 10^-5 M/reaction soln.; for inhibition at 1 µM: inhibitor 10^-6 M/reaction soln.; for inhibition at 0.1 µM: inhibitor 10^-7 M/reaction soln.
T3 construct: A homogenate of bovine lens was centrifuged for ten minutes at 20,000 rpm under cooling; from tissue; host or cells: bovine lens (20,000 rpm supernatant of homogenate)
Protocol: as §1
The determination of enzyme activity was same as in Test Example 1 except enzyme source was bovine lens.
as §2
A homogenate of bovine lens was centrifuged for ten minutes at 20,000 rpm under cooling, the supernatant was collected as an enzyme solution, and the inhibitory action of PQQ against aldose reductase was measured in the same way as in Test Example 4.
A homogenate of bovine lens was centrifuged for ten minutes at 20,000 rpm under cooling, the supernatant was collected as an enzyme solution, and the inhibitory action of PQQ·H2 against bovine lens aldose reductase was measured in the same way as in Test Example 4.
An enzyme solution was prepared from chick lens in the same manner as in Test Example 9, and the inhibitory action of PQQ·3Me against bovine lens aldose reductase was measured in the same way as in Test Example 4.

[5] = system: galactose-induced cataract; experiment: Galactose-induced cataract in rats; format: in vivo, Sprague-Dawley rats; details: for cataract estimation: number at Grade A^- / cataract estimation: number at Grade A^0: 50% galactose feed; for cataract estimation: number at Grade A^-: 7th day; for cataract estimation: number at Grade A^0: 10th day
Protocol: Male, Sprague-Dawley rats weighing 55 to 65 grams were used as test animals in this experiment. These were divided into three groups (normal group, 50%-galactose feed group, and drug-administered group). The normal group was given a commercial powdery feed (CE-2 of Clea Japan Inc.), and the other two groups were given the above normal feed further containing 50% galactose, with free access thereto in all cases. To the drug-administered group, was further administered PQQ orally (30 mg/Kg) or intraperitonealy (20 mg/Kg) once a day throughout the course of test. The lens was extracted from the test animals on the 7th and 10th days after the start of experiment, and cataract estimation was made according to the following standards: […]

[6] = system: egg cataract induced by hydrocortisone; experiment: Egg cataract induced by hydrocortisone; format: in vivo, White-leghorn eggs
Protocol: White-leghorn eggs were incubated in a hatcher held at a temperature of 37° C. and a relative humidity of about 70%.
To the control and drug-administered groups, was administered at the air space 0.2 ml each of a solution of 0.12 mg hydrocortisone succinate (HC) in pure water on the 15th day after the start of incubation.
To the drug-administered group, was further injected PQQ 2 hours, or 2 and 5 hours, after HC administration.
The lens was extracted from each egg 48 hours after HC administration, and cataract estimation was made by the method of Nishigohri et al. [INVESTIGATIVE OPHTHALMOLOGY & VISUAL SCIENCE, 25, 1051 (1984)] according to the following standards: […]

[7] = inhibitor 2 × 10^-6 M/reaction soln., read-out: Inhibition Rate
[8] = inhibitor 4 × 10^-6 M/reaction soln., read-out: Inhibition Rate
[9] = inhibitor 10^-6 M/reaction soln., read-out: Inhibition Rate
[10] = inhibitor 10^-5 M/reaction soln.
[11] = inhibitor 10^-6 M/reaction soln.
[12] = inhibitor 6 × 10^-6 M/reaction soln., read-out: Inhibition Rate
[13] = inhibitor 8 × 10^-6 M/reaction soln., read-out: Inhibition Rate
[14] = PQQ 0.25 mg/egg × 1, HC 0.12 mg/egg, 48 hours after HC
[15] = PQQ 0.5 mg/egg × 1, HC 0.12 mg/egg, 48 hours after HC
[16] = PQQ 0.5 mg/egg × 2, HC 0.12 mg/egg, 48 hours after HC
[17] = PQQ 1.0 mg/egg × 1, HC 0.12 mg/egg, 48 hours after HC

O=C(O)c1cc(C(=O)O)c2c(n1)C(=O)C(=O)c1cc(C(=O)O)[nH]c1-2 [PQQ.2K, PQQ dipotassium salt]
IC50 [1]: 1920 nM and 1900 nM | IC100 [1]: 4 µM | inhibition at 2 µM [1, 7]: 51.4% | inhibition at 3 µM ([1]; inhibitor 3 × 10^-6 M/reaction soln., read-out: Inhibition Rate): 83.3% | inhibition at 4 µM [1, 8]: 100% | inhibition at 0.9 µM ([1]; inhibitor 9 × 10^-7 M/reaction soln., read-out: Inhibition Rate): 8.3% | inhibition at 1 µM [1, 9]: 26.9% | IC50 [2]: 2000 nM

COC(=O)c1cc(C(=O)OC)c2c(n1)C(=O)C(=O)c1cc(C(=O)OC)[nH]c1-2 [PQQ.3Me, PQQ trimethyl ester]
concentration inhibiting the activity by 100% [3]: 8e-06 M | IC50 [3]: 3000 nM | Inhibition Rate ([3]; inhibitor 2 × 10^-6 M/reaction soln.): 30.0% | Inhibition Rate ([3]; inhibitor 4 × 10^-6 M/reaction soln.): 77.1% | Inhibition Rate ([3]; inhibitor 6 × 10^-6 M/reaction soln.): 87.1% | Inhibition Rate ([3]; inhibitor 8 × 10^-6 M/reaction soln.): 100% | Inhibition Rate [3, 10]: 100% | Inhibition Rate [3, 11]: 0% | IC50 [1]: 390 nM | IC100 [1]: 2.5 µM | inhibition at 0.2 µM ([1]; inhibitor 2 × 10^-7 M/reaction soln., read-out: Inhibition Rate): 15% | inhibition at 2.5 µM ([1]; inhibitor 2.5 × 10^-6 M/reaction soln., read-out: Inhibition Rate): 100% | inhibition at 0.3 µM ([1]; inhibitor 3 × 10^-7 M/reaction soln., read-out: Inhibition Rate): 34.4% | inhibition at 0.4 µM ([1]; inhibitor 4 × 10^-7 M/reaction soln., read-out: Inhibition Rate): 50.6% | inhibition at 5 µM ([1]; inhibitor 5 × 10^-6 M/reaction soln., read-out: Inhibition Rate): 100% | inhibition at 0.5 µM ([1]; inhibitor 5 × 10^-7 M/reaction soln., read-out: Inhibition Rate): 63.9% | inhibition at 0.08 µM ([1]; inhibitor 8 × 10^-8 M/reaction soln., read-out: Inhibition Rate): 1.7% | inhibition at 0.1 µM ([1]; inhibitor 10^-7 M/reaction soln., read-out: Inhibition Rate): 10% | inhibition at 2 µM [2, 7]: 3.3% | inhibition at 4 µM [2, 8]: 23.5% | inhibition at 6 µM [2, 12]: 54.4% | inhibition at 8 µM [2, 13]: 98.9% | inhibition at 100 µM ([2]; inhibitor 10^-4 M/reaction soln., read-out: Inhibition Rate): 100% | inhibition at 10 µM ([2]; inhibitor 10^-5 M/reaction soln., read-out: Inhibition Rate): 100% | inhibition at 1 µM [2, 9]: 0% | IC50 [2]: 5800 nM | IC100 ([2]; rat lens, read-out: concentration inhibiting the activity by 100%): 10 µM | concentrations at which effective ([4]; bovine lens (Table 13)): ≥ 10^-6 M | IC50 [4]: 4200 nM | IC100 [4]: 6 µM | inhibition at 2 µM [4, 7]: 22.6% | inhibition at 4 µM [4, 8]: 45.8% | inhibition at 6 µM [4, 12]: 100% | inhibition at 8 µM [4, 13]: 100% | inhibition at 10 µM ([4]; read-out: Inhibition Rate): 100% | inhibition at 1 µM ([4]; read-out: Inhibition Rate): 10% | inhibition at 0.1 µM ([4]; read-out: Inhibition Rate): 0%

O=C(O)c1cc(C(=O)O)c2c(n1)C(=O)C(=O)c1cc(C(=O)O)[nH]c1-2 [PQQ, pyrroloquinoline quinone]
concentration inhibiting the activity by 100% [3]: 10^-4 M | IC50 [3]: 5000 nM | Inhibition Rate ([3]; inhibitor 10^-4 M/reaction soln.): 100% | Inhibition Rate [3, 10]: 82.1% | Inhibition Rate [3, 11]: 13.9% | Inhibition Rate ([3]; inhibitor 10^-7 M/reaction soln.): 0% | Inhibition Rate ([3]; inhibitor 10^-8 M/reaction soln.): 0% | IC50 [4]: 300 nM | IC100 [4]: 1 µM | inhibition at 10 µM ([4]; read-out: Inhibition Rate): 100% | inhibition at 1 µM ([4]; read-out: Inhibition Rate): 100% | inhibition at 0.1 µM ([4]; read-out: Inhibition Rate): 35.9% | inhibition at 0.01 µM ([4]; inhibitor 10^-8 M/reaction soln., read-out: Inhibition Rate): 0% | cataract estimation: number at Grade A^- ([5]; 20 mg/Kg i.p. once a day): 4/4 | cataract estimation: number at Grade A^0 ([5]; 20 mg/Kg i.p. once a day): 2/2 | cataract estimation: number at Grade A^- ([5]; 30 mg/Kg p.o. once a day): 6/6 | cataract estimation: number at Grade A^0 ([5]; 30 mg/Kg p.o. once a day): 4/4 | nebula formation ([5]; 50%-galactose feed for seven days, both p.o. and i.p.): no such nebula formation was observed at all | change of cataract grade versus 50%-galactose feed group ([5]; 50%-galactose feed over ten days): improvement by two grades | effect on hydrocortisone-induced egg cataract ([6]; HC 0.12 mg on 15th day of incubation): evidently showed an effect of curing cataract | cataract estimation: number at Grade I [6, 14]: 2/8 | cataract estimation: number at Grade III [6, 14]: 4/8 | cataract estimation: number at Grade IV [6, 14]: 2/8 | cataract estimation: number at Grade I [6, 15]: 2/10 | cataract estimation: number at Grade III [6, 15]: 8/10 | cataract estimation: number at Grade II [6, 16]: 8/10 | cataract estimation: number at Grade III [6, 16]: 2/10 | cataract estimation: number at Grade I [6, 17]: 2/6 | cataract estimation: number at Grade II [6, 17]: 2/6 | cataract estimation: number at Grade III [6, 17]: 2/6
